From US6737383B1, “Herbicidal oxadiazolidines” (priority 1999, dated 2004)

What was measured:
cocklebur = experiment: Test B pre/postemergence cocklebur; format: in vivo, Xanthium strumarium; conditions: for Cocklebur plant response rating: scale of 0 to 10 where 0 is no effect and 10 is complete control
In short: (§1)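 Herbicidal effect was estimated by eye on a ten-point control scale after plants spent twelve to sixteen days in a greenhouse following soil or foliar treatment. Foliar sprays targeted plants at one to four leaves; all doses were formulated in a non-phytotoxic solvent with surfactant.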

purple nutsedge = experiment: Test B pre/postemergence purple nutsedge; format: in vivo, Cyperus rotundus; conditions: for Nutsedge plant response rating: scale of 0 to 10 where 0 is no effect and 10 is complete control
In short: as §1

bamyardgrass = experiment: Test B flood test barnyardgrass; format: in vivo, Echinochloa crus-galli
In short: (§2)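 Flood test on plants grown to the 2-leaf stage; treated plants kept in greenhouse twelve to sixteen days, then visually rated against controls on a 0 (no effect) to 10 (complete control) scale.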

bedstraw = experiment: Test B pre/postemergence bedstraw; format: in vivo, Galium aparine; conditions: Preemergence
In short: as §1

corn = experiment: Test B pre/postemergence corn; format: in vivo, Zea mays; conditions: for Corn plant response rating: scale of 0 to 10 where 0 is no effect and 10 is complete control
In short: as §1

velvetleaf = experiment: Test B pre/postemergence velvetleaf; format: in vivo, Abutilon theophrasti; conditions: for Velvetleaf plant response rating: scale of 0 to 10 where 0 is no effect and 10 is complete control
In short: as §1

smallflower flatsedge = experiment: Test B flood test smallflower flatsedge; format: in vivo, Cyperus difformis
In short: as §2

pigweed = experiment: Test B pre/postemergence pigweed; format: in vivo, Amaranthus retroflexus; conditions: for Redroot pigweed plant response rating: scale of 0 to 10 where 0 is no effect and 10 is complete control
In short: as §1

surinam grass = experiment: Test B pre/postemergence surinam grass; format: in vivo, Brachiaria decumbens; conditions: for B. signalgrass plant response rating: scale of 0 to 10 where 0 is no effect and 10 is complete control
In short: as §1

rice = experiment: Test B flood test rice; format: in vivo, Oryza sativa
In short: as §2

soybean = experiment: Test B pre/postemergence soybean; format: in vivo, Glycine max; conditions: for Soybean plant response rating: scale of 0 to 10 where 0 is no effect and 10 is complete control
In short: as §1

blackgrass = experiment: Test B pre/postemergence blackgrass; format: in vivo, Alopecurus myosuroides; conditions: for Blackgrass plant response rating: scale of 0 to 10 where 0 is no effect and 10 is complete control
In short: as §1

morningglory = experiment: Test B pre/postemergence morningglory; format: in vivo, Ipomoea hederacea; conditions: for Morningglory plant response rating: scale of 0 to 10 where 0 is no effect and 10 is complete control
In short: as §1

rape = experiment: Test B pre/postemergence rape; format: in vivo, Brassica napus; conditions: for Rape plant response rating: scale of 0 to 10 where 0 is no effect and 10 is complete control
In short: as §1

wild oat = experiment: Test B pre/postemergence wild oat; format: in vivo, Avena fatua; conditions: for Wild oats plant response rating: scale of 0 to 10 where 0 is no effect and 10 is complete control
In short: as §1

sugar beet = experiment: Test B pre/postemergence sugar beet; format: in vivo, Beta vulgaris; conditions: for Sugarbeets plant response rating: scale of 0 to 10 where 0 is no effect and 10 is complete control
In short: as §1

[1] = Postemergence, Rate 125 g/ha, scale 0 to 10, 0 is no effect, 10 is complete control
[2] = Postemergence, Rate 250 g/ha, scale 0 to 10, 0 is no effect, 10 is complete control
[3] = Preemergence, Rate 62 g/ha, scale 0 to 10 (0 no effect, 10 complete control)
[4] = Rate 500 g/ha, Postemergence, scale 0 to 10, 0 no effect, 10 complete control
[5] = Rate 62 g/ha, flood test species, Pre-emergence, visual evaluation after twelve to sixteen days
[6] = Rate 125 g/ha, under heading Pre-emergence, flood test species, visual evaluation after twelve to sixteen days
[7] = Rate 250 g/ha, Pre-emergence, flood-test species, scale 0 to 10, 0 is no effect, 10 is complete control
[8] = Rate 500 g/ha, Pre-emergence, flood test species, scale 0 to 10 (0 no effect, 10 complete control)

Cc1nsc(Cl)c1Cn1c(=O)on(C(=O)N(c2ccc(F)cc2)C(C)C)c1=O [Compound 373]
Plant response rating, Cocklebur (cocklebur; [1]): 1
Plant response rating, Cocklebur (cocklebur; [2]): 2
Plant response rating, Cocklebur (cocklebur; [3]): 0
Cocklebur plant response rating (0 to 10 scale) (cocklebur; Preemergence, Rate 125 g/ha): 0
Cocklebur plant response rating (cocklebur; Preemergence, Rate 250 g/ha): 0
Cocklebur plant response rating (cocklebur; Preemergence, Rate 500 g/ha): 0
Cocklebur plant response rating (cocklebur; Rate 62 g/ha, Postemergence): 0
Plant response rating, Cocklebur (cocklebur; [4]): 2
Plant response rating, Nutsedge (purple nutsedge; [1]): 0
Plant response rating, Nutsedge (purple nutsedge; [2]): 0
Plant response rating, Nutsedge (purple nutsedge; [3]): 0
Nutsedge plant response rating (0 to 10 scale) (purple nutsedge; Preemergence, Rate 125 g/ha): 0
Nutsedge plant response rating (purple nutsedge; Preemergence, Rate 250 g/ha): 0
Nutsedge plant response rating (purple nutsedge; Preemergence, Rate 500 g/ha): 0
Nutsedge plant response rating (purple nutsedge; Rate 62 g/ha, Postemergence): 0
Plant response rating, Nutsedge (purple nutsedge; [4]): 0
Plant response rating, Barnyardgrass (0 to 10 scale, 0 is no effect, 10 is complete control) (bamyardgrass; [5]): 0
Barnyardgrass plant response rating (0 to 10 scale, 0 is no effect, 10 is complete control) (bamyardgrass; [6]): 0
Barnyardgrass plant response rating (bamyardgrass; [7]): 0
Barnyardgrass plant response rating (bamyardgrass; [8]): 0
Plant response rating, Bedstraw (bedstraw; Rate 62 g/ha, scale 0 to 10 (0 no effect, 10 complete control)): 0
Bedstraw plant response rating (0 to 10 scale) (bedstraw; Rate 125 g/ha): 0
Bedstraw plant response rating (bedstraw; Rate 500 g/ha, scale of 0 to 10 where 0 is no effect and 10 is complete control): 0
Plant response rating, Corn (corn; [1]): 0
Plant response rating, Corn (corn; [2]): 0
Plant response rating, Corn (corn; [3]): 0
Corn plant response rating (0 to 10 scale) (corn; Preemergence, Rate 125 g/ha): 0
Corn plant response rating (corn; Preemergence, Rate 250 g/ha): 3
Corn plant response rating (corn; Preemergence, Rate 500 g/ha): 3
Corn plant response rating (corn; Rate 62 g/ha, Postemergence): 0
Plant response rating, Corn (corn; [4]): 0
Plant response rating, Velvetleaf (velvetleaf; [1]): 0
Plant response rating, Velvetleaf (velvetleaf; [2]): 1
Plant response rating, Velvetleaf (velvetleaf; [3]): 0
Velvetleaf plant response rating (0 to 10 scale) (velvetleaf; Preemergence, Rate 125 g/ha): 0
Velvetleaf plant response rating (velvetleaf; Preemergence, Rate 250 g/ha): 0
Velvetleaf plant response rating (velvetleaf; Preemergence, Rate 500 g/ha): 0
Velvetleaf plant response rating (velvetleaf; Rate 62 g/ha, Postemergence): 0
Plant response rating, Velvetleaf (velvetleaf; [4]): 2
Plant response rating, S. Flatsedge (0 to 10 scale, 0 is no effect, 10 is complete control) (smallflower flatsedge; [5]): 0
S. Flatsedge plant response rating (0 to 10 scale, 0 is no effect, 10 is complete control) (smallflower flatsedge; [6]): 0
S. Flatsedge plant response rating (smallflower flatsedge; [7]): 0
S. Flatsedge plant response rating (smallflower flatsedge; [8]): 0
Plant response rating, Redroot pigweed (pigweed; [1]): 3
Plant response rating, Redroot pigweed (pigweed; [2]): 4
Plant response rating, Redroot pigweed (pigweed; [3]): 0
Redroot pigweed plant response rating (0 to 10 scale) (pigweed; Preemergence, Rate 125 g/ha): 3
Redroot pigweed plant response rating (pigweed; Preemergence, Rate 250 g/ha): 7
Redroot pigweed plant response rating (pigweed; Preemergence, Rate 500 g/ha): 10
Redroot pigweed plant response rating (pigweed; Rate 62 g/ha, Postemergence): 2
Plant response rating, Redroot pigweed (pigweed; [4]): 6
Plant response rating, B. signalgrass (surinam grass; [1]): 0
Plant response rating, B. signalgrass (surinam grass; [2]): 0
Plant response rating, B. signalgrass (surinam grass; [3]): 0
B. signalgrass plant response rating (0 to 10 scale, 0 is no effect, 10 is complete control) (surinam grass; Preemergence, Rate 125 g/ha): 0
B. signalgrass plant response rating (surinam grass; Preemergence, Rate 250 g/ha): 0
B. signalgrass plant response rating (surinam grass; Preemergence, Rate 500 g/ha): 2
B. signalgrass plant response rating (surinam grass; Rate 62 g/ha, Postemergence): 0
Plant response rating, B. signalgrass (surinam grass; [4]): 0
Plant response rating, Rice (0 to 10 scale, 0 is no effect, 10 is complete control) (rice; [5]): 0
Rice plant response rating (0 to 10 scale, 0 is no effect, 10 is complete control) (rice; [6]): 0
Rice plant response rating (rice; [7]): 0
Rice plant response rating (rice; [8]): 0
Plant response rating, Soybean (soybean; [1]): 3
Plant response rating, Soybean (soybean; [2]): 4
Plant response rating, Soybean (soybean; [3]): 0
Soybean plant response rating (0 to 10 scale) (soybean; Preemergence, Rate 125 g/ha): 0
Soybean plant response rating (soybean; Preemergence, Rate 250 g/ha): 0
Soybean plant response rating (soybean; Preemergence, Rate 500 g/ha): 2
Soybean plant response rating (soybean; Rate 62 g/ha, Postemergence): 3
Plant response rating, Soybean (soybean; [4]): 4
Plant response rating, Blackgrass (blackgrass; [1]): 0
Plant response rating, Blackgrass (blackgrass; [2]): 0
Plant response rating, Blackgrass (blackgrass; [3]): 1
Blackgrass plant response rating (0 to 10 scale) (blackgrass; Preemergence, Rate 125 g/ha): 3
Blackgrass plant response rating (blackgrass; Preemergence, Rate 250 g/ha): 5
Blackgrass plant response rating (blackgrass; Preemergence, Rate 500 g/ha): 7
Blackgrass plant response rating (blackgrass; Rate 62 g/ha, Postemergence): 0
Plant response rating, Blackgrass (blackgrass; [4]): 0
Plant response rating, Morningglory (morningglory; [1]): 8
Plant response rating, Morningglory (morningglory; [2]): 8
Plant response rating, Morningglory (morningglory; [3]): 0
Morningglory plant response rating (0 to 10 scale) (morningglory; Preemergence, Rate 125 g/ha): 0
Morningglory plant response rating (morningglory; Preemergence, Rate 250 g/ha): 0
Morningglory plant response rating (morningglory; Preemergence, Rate 500 g/ha): 1
Morningglory plant response rating (morningglory; Rate 62 g/ha, Postemergence): 8
Plant response rating, Morningglory (morningglory; [4]): 8
Plant response rating, Rape (rape; [1]): 1
Plant response rating, Rape (rape; [2]): 2
Plant response rating, Rape (rape; [3]): 0
Rape plant response rating (0 to 10 scale) (rape; Preemergence, Rate 125 g/ha): 0
Rape plant response rating (rape; Preemergence, Rate 250 g/ha): 0
Rape plant response rating (rape; Rate 62 g/ha, Postemergence): 0
Plant response rating, Rape (rape; [4]): 5
Plant response rating, Wild oats (wild oat; [1]): 0
Plant response rating, Wild oats (wild oat; [2]): 0
Plant response rating, Wild oats (wild oat; [3]): 0
Wild oats plant response rating (0 to 10 scale) (wild oat; Preemergence, Rate 125 g/ha): 0
Wild oats plant response rating (wild oat; Preemergence, Rate 250 g/ha): 0
Wild oats plant response rating (wild oat; Preemergence, Rate 500 g/ha): 0
Wild oats plant response rating (wild oat; Rate 62 g/ha, Postemergence): 0
Plant response rating, Wild oats (wild oat; [4]): 0
Plant response rating, Sugarbeets (sugar beet; [1]): 0
Plant response rating, Sugarbeets (sugar beet; [2]): 1
Plant response rating, Sugarbeets (sugar beet; [3]): 0
Sugarbeets plant response rating (0 to 10 scale) (sugar beet; Preemergence, Rate 125 g/ha): 0
Sugarbeets plant response rating (sugar beet; Preemergence, Rate 250 g/ha): 4
Sugarbeets plant response rating (sugar beet; Preemergence, Rate 500 g/ha): 7
Sugarbeets plant response rating (sugar beet; Rate 62 g/ha, Postemergence): 0
Plant response rating, Sugarbeets (sugar beet; [4]): 4
